From patent EP4796551A1, “ZWITTERIONIC PHOSPHOLIPID COMPOUND AND LIPID NANOPARTICLE CONTAINING THE SAME” (National University Corporation Hokkaido University, priority 2023, dated 2025)

Legend:
[1] = Lipid polymorphism by SAXS method; format: physicochemical; conditions: DOPE-C8 and POPC at a molar ratio of 1:1, Fig. 10
Procedure: In order to identify the phase of the lipid suspension obtained by mixing DOPE-C8 and POPC at a molar ratio of 1:1, measurement by a small-angle X-ray scattering (SAXS) method was performed by a conventional method using a NANO-Viewer apparatus (Rigaku Corporation).

[2] = Particle size, PDI and ζ-potential of mRNA-LNP (Zetasizer Nano ZS); format: physicochemical; conditions: mRNA-LNP formulation phospholipid:CL4F6:Chol:PEG-DMG 10:50:40:1.0, Fluc mRNA
Procedure: (§1) Ethanol solutions containing each phospholipid, CL4F6, Chol, and PEG2000-dimirystoylglycerol (PEG-DMG) at the molar ratio of 10:50:40:1.0 were prepared at the total lipid concentration of 16 mM. For fluorescent labeling of LNPs, 0.5 mol% of DiI or DiR was added to the above solutions. The firefly luciferase (Fluc)-encoding mRNA (TriLink) was dissolved in a 25 mM acetate buffer (pH 4.0). LNPs were prepared by mixing the lipids in ethanol and RNA in an aqueous solution using an iLiNP device at a total flow rate (TFR) of 0.5 mL/min and a flow rate ratio (FRR) (RNA flow rate/lipid flow rate) of 3. The nitrogen to phosphate (N/P) ratio was adjusted to 6. Syringe pumps (Harvard apparatus) were used to control the flow rate of the solutions. The resulting LNP solutions were then dialyzed for 2 hours or more at 4 °C against phosphate buffered saline without Ca^2+ and Mg^2+ (PBS(-)) using Spectra/Por 4 dialysis membranes (molecular weight cut-off 12,000-14,000 Da, Spectrum Laboratories). The LNP solutions were concentrated by ultrafiltration using an Amicon Ultra-15 unit (MWCO 100 kDa, Millipore) as needed.
(§2) The ζ-average particle size, polydispersity index (PDI), and ζ-potential of the LNPs were measured by means of a Zetasizer Nano ZS ZEN3600 instrument (Malvern Instruments). The encapsulation efficiency and total concentration of mRNA were measured by a Ribogreen assay according to a conventional method.

[3] = test system: liver; test: EGFP expression in the liver after intravenous EGFP mRNA-LNP (CLSM); format: in vivo, BALB/c mice; conditions: Fig. 5, LNP containing the phospholipid, 1 mg RNA/kg, 24 hours later, compared with DSPC or DOPE LNP
Procedure: Further, an mRNA-LNP formulation was prepared in the same manner as in the above item (2) except that mRNA encoding EGFP (TriLink) was used as mRNA, and it was intravenously administered to BALB/c mice at a dose of 1 mg RNA/kg. Then, 24 hours later, the liver was collected by a conventional method, and expression of EGFP was observed using a confocal laser scanning microscope (CLSM).

[4] = test system: liver; test: mRNA introduction ability: luciferase activity in the liver after intravenous Fluc mRNA-LNP; format: in vivo, BALB/c mice; conditions: 0.01 mg RNA/kg, livers collected 6 hours later
Procedure: as §1, with “The resulting LNP solutions were then dialyzed for 2 hours or more at 4 °C against phosphate buffered saline without Ca^2+ and Mg^2+ (PBS(-)) using Spectra/Por 4 dialysis membranes (molecular weight cut-off 12,000-14,000 Da, Spectrum Laboratories). The LNP solutions were concentrated by ultrafiltration using an Amicon Ultra-15 unit (MWCO 100 kDa, Millipore) as needed.” left out
The mRNA-LNP formulations prepared in the above item (2) were intravenously administered to BALB/c mice at a dose of 0.01 mg RNA/kg, and the livers were collected by a conventional method 6 hours later. […] The supernatant was collected, and […] was measured by a luminometer (Luminescencer-PSN, ATTO Corporation) using Luciferase Assay System (Promega). The protein concentration was determined using a BCA protein assay kit (Pierce). Fluc activity was expressed as relative light units (RLU) per 1 mg of protein.

[5] = Lipid polymorphism by 31P NMR method (mixtures with POPC); format: physicochemical
Procedure: In order to examine the interaction between DOPE-Cx and PC and characteristics thereof, lipid polymorphism of the lipid suspension was evaluated by a ^31P NMR method. Since the rotational motion of lipid molecules in a lamellar phase which is a planar structure and a (inverted) hexagonal phase which is a tubular structure receives different restrictions respectively, a specific ^31P NMR spectrum is provided by chemical shift anisotropy. Specifically, the lamellar phase produces a broad […] peak, and the (inverted) hexagonal phase produces a broad […] peak.
First, DOPE or DOPE-C8 and 1-palmitoyl-2-oleoyl-sn-glycero-3-phosphocholine (POPC) were mixed at a predetermined ratio in 400 µL of chloroform (total lipid 16 µmol), and the solvent was removed by a rotary evaporator to form a lipid membrane. The lipid membrane was hydrated with 500 µL of 20 mM HEPES buffer (pH 7.4, 130 mM NaCl) at 60°C. Then, the lipid dispersion was transferred to an NMR tube, and a ^31P NMR spectrum at room temperature was measured by a conventional method using an ECX 400P spectrometer (JEOL Ltd.).

[6] = test system: erythrocytes (RBCs); test: Membrane disruption ability of LNP (hemolytic activity); format: cell-based, BALB/c mice; conditions: pH 6.0, 37°C, 30 minutes, Fig. 6B
Procedure: In order to use as an index of endosomal escape efficiency of LNP, membrane disruption ability of LNP was evaluated using erythrocytes as a model biological membrane. Specifically, fresh erythrocytes (RBCs) were collected from BALB/c mice and suspended in a buffer solution (10 mM malic acid, 10 mM HEPES, 10 mM MES, and 120 mM NaCl) at pH 5.0, 6.0, or 7.4. The RBC suspension was mixed with the same amount of each LNP suspension (containing DOPE-C8, DOPE, or DSPC as phospholipid) and reacted at 37°C for 30 minutes. Then, the supernatant was collected, absorbance at 545 nm was measured, and hemoglobin leaked from the erythrocytes was quantified. As a positive control, a sample hemolyzed with 0.5 w/v% Triton X-100 was prepared, and as a negative control, a sample not containing LNP was prepared. The ratio of the absorbance of the test sample to the absorbance of the positive control was expressed as % hemolytic activity.

[7] = Ribogreen assay, mRNA encapsulation efficiency of LNP; format: physicochemical; conditions: mRNA-LNP formulation phospholipid:CL4F6:Chol:PEG-DMG 10:50:40:1.0, Fluc mRNA
Procedure: as §1, §2

[8] = lipid alone (lipid:POPC=1:0), 20 mM HEPES pH 7.4, room temperature

Structure (SMILES)	Number average particle size (nm) ([2]; Table 1)	PDI ([2]; Table 1)	ζ-potential (mV) ([2]; Table 1)	ζ-average particle size (nm) ([2]; Table 1, N/P 6)	lipid phase by 31P NMR spectrum [5, 8]	membrane disruption activity (hemolytic activity) [6]	mRNA encapsulation rate % ([7]; Table 1) [%]	Number average particle size (nm) ([2]; Table 2)	PDI ([2]; Table 2)	ζ-average particle size (nm) ([2]; Table 2)	ζ-potential (mV) ([2]; Table 2)	mRNA encapsulation rate % ([7]; Table 2) [%]	also measured
CCCCCCCC/C=C\CCCCCCCC(=O)OC[C@H](COP(=O)(O)OCCNCCC(=O)OCCCCCCCC)OC(=O)CCCCCCC/C=C\CCCCCCCC [DOPE-C8, (R)-2,3-bis(oleoyloxy)propyl (2-((3-(octyloxy)-3-oxopropyl)ammonio)ethyl) phosphate]	62	0.21	-5.6	94	spectrum derived from the inverted hexagonal phase	higher membrane disruption activity than the LNP containing DSPC	92.6						phase of the lipid suspension by SAXS [1]: Im3m type inverse bicontinuous cubic phase; Number average particle size (nm) ([2]; Table 3): 55 nm; PDI ([2]; Table 3): 0.17; ζ-average particle size (nm) ([2]; Table 3): 80 nm; ζ-potential (mV) ([2]; Table 3): -12.8 mV; expression of EGFP in the liver [3]: significantly higher expression of EGFP; luciferase activity in the liver ([4]; Fig. 2, n=3, LNP containing the phospholipid): highest activity; lipid phase by 31P NMR spectrum ([5]; POPC content increased beyond 1:1, Fig. 7B): the peak derived from the lamellar phase became stronger in a POPC content-dependent manner; lipid phase by 31P NMR spectrum ([5]; lipid:POPC molar ratio 1:1, 20 mM HEPES pH 7.4, room temperature): sharp peak centered at 0 ppm; mRNA encapsulation rate % ([7]; Table 3): 97.6%
CCCCCCCC/C=C\CCCCCCCC(=O)OC[C@H](COP(=O)(O)OCCNCCC(=O)OCC(CC)CCCC)OC(=O)CCCCCCC/C=C\CCCCCCCC (stereo partly drawn) [DOPE-C6_β2, (R)-2,3-bis(oleoyloxy)propyl (2-((3-((2-ethylhexyl)oxy)-3-oxopropyl)ammonio)ethyl) phosphate]								73	0.07	94	-5.0	95.7	luciferase activity in the liver ([4]; Figs. 3 and 4, LNP containing the phospholipid): highest activity
CCCCCCCC/C=C\CCCCCCCC(=O)OC[C@H](COP(=O)(O)OCCN)OC(=O)CCCCCCC/C=C\CCCCCCCC [DOPE, 1,2-dioleoyl-sn-glycero-3-phosphoethanolamine, reference compound]	57	0.25	-2.5	88	spectrum derived from the inverted hexagonal phase	higher membrane disruption activity than the LNP containing DSPC	93.0	67	0.13	95	-2.9	92.8	lipid phase by 31P NMR spectrum ([5]; lipid:POPC=9:1, 20 mM HEPES pH 7.4, room temperature): transition to the lamellar phase occurred
